Measured values: US9844546B2, “Antibody against human HIF hydroxylase” (OXFORD UNIVERSITY INNOVATION LIMITED, priority 2001, dated 2017)

Experiments:
VHL E3 ubiquitin ligase = biological target: T1, VHL E3 ubiquitin ligase (Homo sapiens, UniProt P40337); experiment: VHL E3 interaction assay with 35S-labelled tat-ODD IVTT products; assay type: binding; details: after modification by cell extracts
T1 construct: expressed in transfected cells; host or cells: 786-0 cells stably transfected with pcDNA3 VHL.HA (whole extract, anti-HA immunoprecipitation)
T1 sequence (P40337 whole entry): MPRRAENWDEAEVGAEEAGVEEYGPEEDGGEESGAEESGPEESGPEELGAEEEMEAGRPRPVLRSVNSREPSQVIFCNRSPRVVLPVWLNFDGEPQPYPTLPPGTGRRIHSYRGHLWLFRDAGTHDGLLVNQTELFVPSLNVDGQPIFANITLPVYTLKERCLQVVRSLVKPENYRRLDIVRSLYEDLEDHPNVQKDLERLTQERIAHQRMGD
T1 sequence (Q15370 whole entry partner): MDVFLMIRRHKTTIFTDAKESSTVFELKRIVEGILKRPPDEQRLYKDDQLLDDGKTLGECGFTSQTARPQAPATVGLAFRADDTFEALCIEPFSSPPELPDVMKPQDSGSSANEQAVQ
T1 sequence (Q15369 whole entry partner): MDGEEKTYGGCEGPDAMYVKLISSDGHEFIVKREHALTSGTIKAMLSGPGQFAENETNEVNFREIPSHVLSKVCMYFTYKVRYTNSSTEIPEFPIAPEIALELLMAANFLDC
T1 sequence (Q13617 whole entry partner): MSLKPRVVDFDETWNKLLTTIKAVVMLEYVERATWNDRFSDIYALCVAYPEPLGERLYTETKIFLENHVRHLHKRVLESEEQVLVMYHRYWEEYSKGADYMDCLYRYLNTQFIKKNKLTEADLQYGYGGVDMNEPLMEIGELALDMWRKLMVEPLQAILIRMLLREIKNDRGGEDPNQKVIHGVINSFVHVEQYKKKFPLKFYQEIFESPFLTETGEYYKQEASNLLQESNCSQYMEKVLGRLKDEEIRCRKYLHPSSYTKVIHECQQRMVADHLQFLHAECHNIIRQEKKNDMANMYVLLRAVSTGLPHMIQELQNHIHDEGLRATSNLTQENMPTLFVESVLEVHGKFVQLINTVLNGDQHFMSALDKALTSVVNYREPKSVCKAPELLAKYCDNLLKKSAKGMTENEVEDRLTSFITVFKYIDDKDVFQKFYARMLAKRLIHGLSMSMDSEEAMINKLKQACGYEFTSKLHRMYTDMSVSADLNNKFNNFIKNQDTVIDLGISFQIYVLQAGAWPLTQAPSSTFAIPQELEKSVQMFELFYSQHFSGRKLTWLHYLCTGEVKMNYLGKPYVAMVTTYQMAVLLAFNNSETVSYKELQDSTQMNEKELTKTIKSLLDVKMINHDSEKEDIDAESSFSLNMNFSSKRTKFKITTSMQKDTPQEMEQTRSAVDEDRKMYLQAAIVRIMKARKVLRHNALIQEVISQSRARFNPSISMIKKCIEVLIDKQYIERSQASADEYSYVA
T1 sequence (P62877 whole entry partner): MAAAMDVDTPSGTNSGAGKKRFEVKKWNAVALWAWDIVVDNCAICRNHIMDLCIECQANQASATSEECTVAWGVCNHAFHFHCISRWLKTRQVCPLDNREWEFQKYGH
Excerpt: Concordant with the ubiquitination assays discussed above NODD (HIF-1α 343-417) and CODD (HIF-1α 549-582) polypeptides, but not their corresponding proline mutants (HIF-1α 343-417/P402A and HIF-1α 549-582/P564G), bound to VHL E3 ubiquitin ligase after modification by cell extracts. The ^35S-methionine labelled recombinant polypeptides therefore interacted with VHL, supporting the results of the ubiquitination experiments discussed above. The interaction was enhanced by the presence of cell extracts which promote hydroxylation of the prolines at positions 402 and 564 ^19. In contrast, no binding occurred using peptides in which prolines were mutated.
For VHL E3 interaction assays ^35S-methionine labelled HIF-1a substrates were prepared by transcription/translation using TnT7 rabbit reticulocyte lysate (Promega). 100 μM DFO was added to the reaction to suppress prolyl hydroxylase activity of the reticulocyte lysate. Substrate modification was achieved by incubation of HIF-1α translate with RCC4 cell lysate in the presence of ferrous chloride (100 μM). Interaction with VHL E3 was analysed as described previously ^21.

U2OS cells = U2OS cells stably transfected with doxycycline-inducible NODD or CODD; assay type: cell-based, human
Description: To explore further the therapeutic potential of NODD and CODD polypeptides to activate endogenous HIF we stably transfected U2OS cells with doxycycline-inducible NODD (doxNODD) and CODD constructs (doxCODD) encoding identical sequences to those used for transient transfections.
Cells stably transfected with NODD or CODD controlled by the tetracycline-inducible system were exposed to doxycycline. Cell extracts were prepared 0, 16, 24 and 48 hours after exposure to doxycycline. The extracts of doxNODD (HIF-1α aa343-417), doxCODD (HIF-1α aa549-82) and control cells (empty vector) were then immunoblotted for HIF-1α protein. Increased HIF-1α signals were detected from 16-48 hours following doxycycline administration in doxNODD and doxCODD cells but not in empty vector cells. Levels of HIF-1α induced by hypoxia were also measured for comparison. The endogenous HIF-1α induction was doxycycline dose (0.2-3.2 μg/ml) and time dependent, peaking after 48 hours. Maximal levels were about 20% and about 70% of HIF-1α levels seen following hypoxic or DFO treatment of the doxNODD and doxCODD cells respectively. […]
Stably transfected cell lines were generated by transfecting U2OS cells bearing the reverse tetracycline responsive transactivator ^34 and the tetKRAB silencer construct ^36 with pUHD/HIF plasmids. Following selection in G418 (1 mg/ml) individual colonies were picked. DoxNODD (F21) and doxCODD (myc19) clones expressed pUHD/HIF-1aa343-417/3NLS/c-myc and pUHD/HIF-1α aa549-82/3NLS/c-myc respectively. […]
Cell extracts were prepared in buffer (8M urea, 10% glycerol, 1% SDS, 5 mM DTT, 10 mM Tris/pH 6.8), separated by SDS-PAGE and transferred to Immobilon-P membrane (Millipore). Primary antibodies against HIF-1α, c-myc tag and HA tag were from Transduction Laboratories, Innogenex and Roche Molecular respectively. […]

U2OS and Hep3B cells = experiment: HRE-dependent luciferase reporter assay after transient transfection of NODD/CODD plasmids; assay type: cell-based, human; details: normoxic conditions, 24 hours
Excerpt: Since normoxic HIFα degradation is saturable ^17 and depends on sub-regions within the ODD we tested whether peptides encoding the HIF-1α amino terminal ODD (NODD) and carboxy terminal ODD (CODD) ^21 could affect HIF activity as measured by hypoxia response element (HRE)-dependent reporter gene expression. Briefly, Degradation is prevented by the NODD and CODD polypeptides competing for prolyl hydroxylation and/or VHL binding, thereby blocking subsequent ubiquitination. We constructed plasmids encoding NODD (HIF-1-α aa 343-417) or CODD (HIF-1-α aa 549-582) linked to nuclear localisation sequences and a c-myc epitope tag. These plasmids were transiently co-transfected into U2OS and Hep3B cells with an HRE-dependent luciferase reporter plasmid. […]
For reporter gene assays DNA fragments encoding HIF-1α amino acids 343-417, 380-417, 390-417, 390-410, 343-400, 530-95, 530-82, 549-82, 556-74 and 530-62 were generated by PCR using oligonucleotides containing 5′ SacII or 3′ AscI sites and inserted into a pCMV/myc/nuc (Invitrogen) derivative bearing these sites in frame with the NLS and epitope tag. […] To generate tet-operator dependent plasmids the open reading frames from the aa343-417 and aa549-82 constructs were subcloned into pUHD 10 ^34. […]

[1] = tested on: human microvascular endothelial cells (HMEC-1); experiment: Tubule formation assay, co-culture with HMEC-1; assay type: cell-based; details: intermittent doxycycline over 5 days
Excerpt: Artificial activation of the HIF signalling pathway using the methods of the invention should induce angiogenesis and will therefore be of potential therapeutic use in ischaemic disease. We tested the effect of polypeptide induced HIF stabilisation in an in vitro angiogenesis assay, co-culturing human microvascular endothelial cells (HMEC-1) with empty vector transfected or doxCODD cells. In view of the possibility of sustained activation inducing a negative feedback loop we opted to test the effects of intermittent induction. […] As a positive control epidermal Growth Factor (EGF; 5 ng/ml), which is known to induce growth of HMEC-1, was used. To extend these observations into an in vivo model we assayed the effects of injecting tat-fusion proteins into polyurethane sponges implanted subcutaneously in mice. Intermittent injections on days 1, 2, 4 and 5 led to a markedly accelerated angiogenic response assayed on day 7 when compared with sponges injected with proline mutant fusion proteins, excluding a contribution from the tat component ^28. […]
doxCODD or empty vector cells were co-cultivated with human microvascular endothelial cells (HMEC-1) in a ratio of 2:1 in DMEM 10% doxycycline free FCS (Clontech), 2 mM Glutamine and 100 U/ml Penicillin/100 μg/ml Streptomycin. […] Endothelial cells were detected using antibodies to von Willebrand factor (vWF) (Dako).

## CODD: HIF-1α carboxy terminal ODD polypeptide (aa 549-582) with nuclear localisation sequences and c-myc tag, plasmid expressed
VHL E3 ubiquitin ligase
  binding to VHL E3 ubiquitin ligase: bound
U2OS cells; 24 hours induction with doxycycline, versus empty vector cells
  3H-glucose uptake: enhanced uptake of ^3H-glucose
U2OS cells; cell extracts versus empty vector extracts
  ubiquitination of exogenous 35S-methionine labelled HIF-1α: markedly reduced
U2OS cells; doxycycline 0.2-3.2 μg/ml, peaking after 48 hours
  Maximal HIF-1α level relative to hypoxic or DFO treatment: about 70%
U2OS cells; doxycycline repeatedly added, 0-8 days
  Glut-1 mRNA (ribonuclease protection): increased for the first 4 days and then declined
U2OS cells; doxycycline, 24 and 48 hours
  CAIX mRNA (ribonuclease protection): markedly induced mRNA levels
U2OS and Hep3B cells
  HRE-dependent relative luciferase activity: increased relative luciferase activity
[1]
  tubule formation of co-cultured endothelial cells: assembly of co-cultured endothelial cells into complex tubular structures
